Results from a compilation of properties of binary mixtures (doi:10.1016/j.molliq.2018.05.059).

Test: xn = mol fraction of the nth substance listed
Details: 298 K, 101 kPa

CC(O)C(=O)[O-].CCC[N+]1(C)CCN(C)CC1 + CC#N
Details | electrical conductivity [S/m]
x2 = 0.808 | 1.52
x2 = 0.835 | 1.72
x2 = 0.856 | 1.83
x2 = 0.872 | 1.91
x2 = 0.89 | 1.99
x2 = 0.898 | 1.99
x2 = 0.907 | 2.04
x2 = 0.918 | 2.05
x2 = 0.927 | 2.05
x2 = 0.939 | 2.01
x2 = 0.945 | 1.96

CC(=O)[O-].CCC[N+]1(C)CCN(C)CC1 + CC#N
Details | electrical conductivity [S/m]
x2 = 0.806 | 1.82
x2 = 0.819 | 1.89
x2 = 0.832 | 1.95
x2 = 0.843 | 1.98
x2 = 0.852 | 1.98
x2 = 0.859 | 2.04
x2 = 0.874 | 2.01
x2 = 0.884 | 2.04
x2 = 0.895 | 2.06
x2 = 0.902 | 2.06
x2 = 0.919 | 2.04
x2 = 0.931 | 2.01
x2 = 0.937 | 1.94
x2 = 0.95 | 1.85
